Experimental data: EP0946580B1, “NOVEL ERYTHROMYCIN DERIVATIVES, METHOD OF PREPARATION AND APPLICATION AS MEDICINES” (Aventis Pharma S.A., priority 1996, dated 1998)

Experiments:
Type in all cases: cell-based
[1] = tested on: Staphylococcus aureus 011UC4; test: Liquid medium dilution method (MIC); details: 24 h incubation at 37°C, read-out: concentrations minimales inhibitrices (C.M.I.)
Description: (§1) Méthode des dilutions en milieu liquide
(§2) On a préparé une série de tubes dans lesquels on répartit une même quantité de milieu nutritif stérile. On distribue dans chaque tube des quantités croissantes du produit à étudier, puis chaque tube est ensemencé avec une souche bactérienne. Après incubation de vingt-quatre heures à l'étuve à 37°C, l'inhibition de la croissance est appréciée par transillumination de ce qui permet de déterminer les concentrations minimales inhibitrices (C.M.I.) exprimées en microgrammes/cm^3.

[2] = tested on: Staphylococcus epidermidis 012GO11I; test: Liquid medium dilution method (MIC); details: 24 h incubation at 37°C, read-out: concentrations minimales inhibitrices (C.M.I.)
Description: as §1, §2

[3] = tested on: Streptococcus agalactiae groupe B 02B1HT1; test: Liquid medium dilution method (MIC); details: 24 h incubation at 37°C, read-out: concentrations minimales inhibitrices (C.M.I.)
Description: as §1, §2

[4] = tested on: Streptococcus agalactiae groupe B 02B1SJ1; test: Liquid medium dilution method (MIC); details: 24 h incubation at 37°C, read-out: concentrations minimales inhibitrices (C.M.I.)
Description: as §1, §2

[5] = tested on: Streptococcus faecalis groupe D 02D2UC1; test: Liquid medium dilution method (MIC); details: Enterococcus faecalis, 24 h incubation at 37°C, read-out: concentrations minimales inhibitrices (C.M.I.)
Description: as §1, §2

[6] = tested on: Streptococcus faecium groupe D 02D3HT1; test: Liquid medium dilution method (MIC); details: Enterococcus faecium, 24 h incubation at 37°C, read-out: concentrations minimales inhibitrices (C.M.I.)
Description: as §1, §2

[7] = tested on: Streptococcus mitis 02mitCB1; test: Liquid medium dilution method (MIC); details: 24 h incubation at 37°C, read-out: concentrations minimales inhibitrices (C.M.I.)
Description: as §1, §2

[8] = tested on: Streptococcus mitis 02mitGR16I; test: Liquid medium dilution method (MIC); details: 24 h incubation at 37°C, read-out: concentrations minimales inhibitrices (C.M.I.)
Description: as §1, §2

[9] = tested on: Streptococcus pneumoniae 030ROIi; test: Liquid medium dilution method (MIC); details: 24 h incubation at 37°C, read-out: concentrations minimales inhibitrices (C.M.I.)
Description: as §1, §2

[10] = tested on: Streptococcus pyogenes groupe A 02A1UC1; test: Liquid medium dilution method (MIC); details: 24 h incubation at 37°C, read-out: concentrations minimales inhibitrices (C.M.I.)
Description: as §1, §2

[11] = tested on: Streptococcus sp groupe G 02G0GR5; test: Liquid medium dilution method (MIC); details: 24 h incubation at 37°C, read-out: concentrations minimales inhibitrices (C.M.I.)
Description: as §1, §2

[12] = tested on: Haemophilus Influenzae 351HT3; test: Activity on gram-negative bacterial strains
[13] = tested on: Haemophilus Influenzae 351CB12; test: Activity on gram-negative bacterial strains
[14] = tested on: Haemophilus Influenzae 351CA1; test: Activity on gram-negative bacterial strains
[15] = tested on: Haemophilus Influenzae 351GR6; test: Activity on gram-negative bacterial strains

CCC1OC(=O)C(C)=CC(C)C(OC2OC(C)CC(N(C)C)C2O)C(C)(OC)CC(C)C(=O)C(C)C2N(CCCCn3cnc(-c4cccnc4)c3)C(=O)OC12C [Ex. 1, 2,3-didéhydro-11,12-didéoxy-3-de[(2,6-didéoxy-3-C-méthyl-3-O-méthyl-alpha-L-ribo-hexopyranosyl)oxy]6-O-méthyl-12,11-[oxycarbonyl[[4-[4-(3-pyridinyl)-1H-imidazol-1-yl]butyl]imino]]-érythromycine]
≤ 0.02 µg/mL: MIC [3] | MIC [5] | MIC [6] | MIC [7] | MIC [8] | MIC [9] | MIC [10] | MIC [11]
activité intéressante: activité sur les souches bactériennes à gram^⊖ [12] | activité sur les souches bactériennes à gram^⊖ [13] | activité sur les souches bactériennes à gram^⊖ [14] | activité sur les souches bactériennes à gram^⊖ [15]
0.15 µg/mL: MIC [2]
0.08 µg/mL: MIC [1] | MIC [4]
